Like-named read-outs stand apart in the source and are kept apart here.
Key:
Format in all cases: cell-based, human
[1] = test system: HTT mRNA; test: RT-qPCR splicing assay, HTT canonical (CJ) and alternative (AJ) junction mRNA; settings: for AC50: read-out: HTT AJ (AC50, increase in AJ mRNA)
Summary of the method: (§1)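 A673 (DMEM/10% FBS) or K562 (IMDM/10% FBS) cells treated 24 h at 37 °C with 11-point 3-fold dilutions, top 10 uM final, DMSO ≤0.25%. Lysates read by one-step RT-qPCR for CJ and AJ isoforms, normalized to GAPDH, GUSB or PPIA. ΔΔCt vs DMSO gives RQ via 2^(-ΔΔCt).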

[2] = test system: Target C mRNA; test: RT-qPCR splicing assay panel, Target C canonical junction (CJ) mRNA; settings: Homo sapiens
Summary of the method: as §1

[3] = test system: SMN2 mRNA; test: RT-qPCR splicing assay panel, SMN2 canonical junction (CJ) mRNA
Summary of the method: as §1

[4] = test system: MYB mRNA; test: RT-qPCR splicing assay, MYB canonical (CJ) and alternative (AJ) junction mRNA; settings: for AC50: read-out: MYB AJ (AC50, increase in AJ mRNA)
Summary of the method: as §1

[5] = Homo sapiens, 24 h, Table 3A, A673 or K562 cells, 24 h treatment
[6] = Homo sapiens, 24 h, Table 3A, A673 or K562 cells, 24 h treatment, read-out: HTT CJ (IC50, decrease in CJ mRNA)
[7] = Homo sapiens, canonical junction (CJ) mRNA, RT-qPCR panel, Table 4A, read-out: HTT, decrease in CJ mRNA levels, IC50
[8] = canonical junction (CJ) mRNA, RT-qPCR panel, Table 4A, read-out: Target C, decrease in CJ mRNA levels, IC50
[9] = Homo sapiens, canonical junction (CJ) mRNA, RT-qPCR panel, Table 4A, read-out: SMN2, decrease in CJ mRNA levels, IC50
[10] = Homo sapiens, 24 h, Table 3A, A673 or K562 cells, 24 h treatment, read-out: MYB CJ (IC50, decrease in CJ mRNA)
[11] = Homo sapiens, canonical junction (CJ) mRNA, RT-qPCR panel, Table 4A, read-out: MYB, decrease in CJ mRNA levels, IC50
[12] = Homo sapiens, 24 h, Table 3B, A673 or K562 cells, 24 h treatment
[13] = Homo sapiens, 24 h, Table 3B, A673 or K562 cells, 24 h treatment, read-out: HTT CJ (IC50, decrease in CJ mRNA)
[14] = Homo sapiens, Table 4B, gene panel, read-out: HTT (IC50, decrease in CJ mRNA levels)
[15] = Table 4B, gene panel, read-out: Target C (IC50, decrease in CJ mRNA levels)
[16] = Homo sapiens, Table 4B, gene panel, read-out: SMN2 (IC50, decrease in CJ mRNA levels)
[17] = Homo sapiens, 24 h, Table 3B, A673 or K562 cells, 24 h treatment, read-out: MYB CJ (IC50, decrease in CJ mRNA)
[18] = Homo sapiens, Table 4B, gene panel, read-out: MYB (IC50, decrease in CJ mRNA levels)
[19] = Table 3A, A673 or K562 cells, 24 h treatment

| Structure (SMILES) | AC50 [1, 5] [nM] | IC50 [1, 6] [nM] | IC50 [1, 7] [nM] | IC50 [2, 8] [nM] | IC50 [3, 9] [nM] | AC50 [4, 5] [nM] | IC50 [4, 10] [nM] | IC50 [4, 11] [nM] | further results |
| --- | --- | --- | --- | --- | --- | --- | --- | --- | --- |
| CCN(C1CCC1)[C@H]1CCN(c2ccc(-c3ccc(-c4cnnc(OC)c4)cc3O)nn2)C1 [Compound 276] | 100 to 1000 | < 100 | < 100 | 100 to 1000 | < 100 | 100 to 1000 | 100 to 1000 | 100 to 1000 | – |
| Cn1ccc2cc(O)c(-c3cnc(N4CCC(NC(C)(C)C)C4)nn3)cc2c1=O (stereo not shown) [Compound 869] | – | – | – | – | – | – | – | – | AC50 [1, 12]: > 10000 nM; IC50 [1, 13]: > 10000 nM; IC50 [1, 14]: > 10000 nM; IC50 [2, 15]: > 10000 nM; IC50 [3, 16]: > 10000 nM; AC50 [4, 12]: > 10000 nM; IC50 [4, 17]: > 10000 nM; IC50 [4, 18]: > 10000 nM |
| Cc1ncc(-c2cc(O)c(-c3ccc(N4CC[C@H](NCC5CCC5)C4)nn3)cc2F)s1 [Compound 411] | < 100 | < 100 | < 100 | < 100 | < 100 | 100 to 1000 | 1000 to 10000 | 1000 to 10000 | – |
| COc1cc(-c2cc(O)c(-c3ccc(N4CCC(C)(NC(C)C)C4)nn3)cc2F)cnn1 (stereo not shown) [Compound 284] | < 100 | < 100 | < 100 | 100 to 1000 | < 100 | 100 to 1000 | 100 to 1000 | 100 to 1000 | – |
| Cc1nc(-c2ccc(-c3ccc(N4CCC(NC5CCC5)C4)nn3)c(O)c2)cs1 (stereo not shown) [Compound 412] | – | – | – | > 10000 | – | – | – | – | AC50 [1, 19]: > 10000 nM; IC50 ([1]; Table 3A, A673 or K562 cells, 24 h treatment, read-out: HTT CJ (IC50, decrease in CJ mRNA)): > 10000 nM; IC50 ([1]; canonical junction (CJ) mRNA, RT-qPCR panel, Table 4A, read-out: HTT, decrease in CJ mRNA levels, IC50): > 10000 nM; IC50 ([3]; canonical junction (CJ) mRNA, RT-qPCR panel, Table 4A, read-out: SMN2, decrease in CJ mRNA levels, IC50): > 10000 nM; AC50 [4, 19]: > 10000 nM; IC50 ([4]; Table 3A, A673 or K562 cells, 24 h treatment, read-out: MYB CJ (IC50, decrease in CJ mRNA)): > 10000 nM; IC50 ([4]; canonical junction (CJ) mRNA, RT-qPCR panel, Table 4A, read-out: MYB, decrease in CJ mRNA levels, IC50): > 10000 nM |
| Cc1nc2cc(O)c(-c3cnc(N4CC[C@@H](N(C)C(C)(C)C)C4)nn3)cc2o1 [Compound 856] | – | – | – | – | – | – | – | – | AC50 [1, 12]: 1000 to 10000 nM; IC50 [1, 13]: 100 to 1000 nM; IC50 [1, 14]: 100 to 1000 nM; IC50 [2, 15]: 1000 to 10000 nM; IC50 [3, 16]: 100 to 1000 nM; AC50 [4, 12]: 1000 to 10000 nM; IC50 [4, 17]: 1000 to 10000 nM; IC50 [4, 18]: 1000 to 10000 nM |
| CC1(NC2CCN(c3ccc(-c4ccc(-c5cn[nH]c5)cc4O)nn3)C2)CC1 (stereo not shown) [Compound 107, 2-(6-{3-[(1-methylcyclopropyl)amino]pyrrolidin-1-yl}pyridazin-3-yl)-5-(1H-pyrazol-4-yl)phenol] | < 100 | < 100 | < 100 | < 100 | < 100 | < 100 | < 100 | < 100 | – |
| Cc1ncc(-c2cc(O)c(-c3ccc(N4CC[C@H](NCC5CC5)C4)nn3)cc2F)s1 [Compound 393] | < 100 | < 100 | < 100 | < 100 | < 100 | < 100 | < 100 | < 100 | – |
| Cc1ncc(-c2cc(O)c(-c3ccc(N4CCC(NC5CCCCC5)C4)nn3)cc2F)s1 (stereo not shown) [Compound 410] | < 100 | < 100 | < 100 | 100 to 1000 | < 100 | 100 to 1000 | 1000 to 10000 | 1000 to 10000 | – |
| Cc1nc2ccc(-c3ccc(N4CCC(NC(C)(C)C)C4)nn3)nc2o1 (stereo not shown) [Compound 832] | – | – | – | – | – | – | – | – | AC50 [1, 12]: 100 to 1000 nM; IC50 [1, 13]: < 100 nM; IC50 [1, 14]: < 100 nM; IC50 [2, 15]: 100 to 1000 nM; IC50 [3, 16]: < 100 nM; AC50 [4, 12]: 100 to 1000 nM; IC50 [4, 17]: 100 to 1000 nM; IC50 [4, 18]: 100 to 1000 nM |
| COc1cc(-c2ccc(-c3ccc(N4CC[C@H](N[C@H]5C[C@@H](F)C5)C4)nn3)c(O)c2)ncn1 [Compound 407, 5-(6-methoxypyrimidin-4-yl)-2-{6-[(3R)-3-{[(1s,3s)-3-fluorocyclobutyl]amino}pyrrolidin-1-yl]pyridazin-3-yl}phenol] | 100 to 1000 | 100 to 1000 | 100 to 1000 | 100 to 1000 | 100 to 1000 | 100 to 1000 | 100 to 1000 | 100 to 1000 | – |
| COc1cc(-c2ccc(-c3ccc(N4CCC(NC(C)(C)C)C4=O)nn3)c(O)c2)cnn1 (stereo not shown) [Compound 219, 3-(tert-butylamino)-1-{6-[2-hydroxy-4-(6-methoxypyridazin-4-yl)phenyl]pyridazin-3-yl}pyrrolidin-2-one] | 1000 to 10000 | 1000 to 10000 | 1000 to 10000 | 1000 to 10000 | 1000 to 10000 | 1000 to 10000 | 1000 to 10000 | 1000 to 10000 | – |
| COc1cc(-c2cc(O)c(-c3ccc(N4CC[C@@H](NC(C)(C)C)C4)nn3)cc2F)cnn1 [Compound 212, 2-{6-[(3R)-3-(tert-butylamino)pyrrolidin-1-yl]pyridazin-3-yl}-4-fluoro-5-(6-methoxypyridazin-4-yl)phenol] | < 100 | < 100 | < 100 | < 100 | < 100 | < 100 | < 100 | < 100 | – |
| Cc1nnc(-c2cc(O)c(-c3ccc(N4CC[C@@H](NC5CCC5)C4)nn3)cc2F)s1 [Compound 359] | 1000 to 10000 | 100 to 1000 | 100 to 1000 | 1000 to 10000 | 100 to 1000 | 1000 to 10000 | 1000 to 10000 | 1000 to 10000 | – |
| CC(=O)c1cc(-c2ccc(-c3ccc(N4CCC(NC5CCC5)C4)nn3)c(O)c2)cnn1 (stereo not shown) [Compound 445] | > 10000 | > 10000 | > 10000 | > 10000 | > 10000 | > 10000 | > 10000 | > 10000 | – |
| COc1cc(-c2ccc(-c3ccc(N4CC[C@@H](NC5(C)CCC5)C4)nn3)c(O)c2)cnn1 [Compound 287, (R)-5-(6-methoxypyridazin-4-yl)-2-(6-(3-((1-methylcyclobutyl)amino)pyrrolidin-1-yl)pyridazin-3-yl)phenol] | < 100 | < 100 | < 100 | < 100 | < 100 | < 100 | < 100 | < 100 | – |
| Cc1ccc(-c2cc(O)c(-c3ccc(N4CC[C@@H](NC5CCC5)C4)nn3)cc2F)cn1 [Compound 222] | 100 to 1000 | 100 to 1000 | 100 to 1000 | 1000 to 10000 | 100 to 1000 | 1000 to 10000 | 100 to 1000 | 100 to 1000 | – |
| Cc1nc2cc(O)c(-c3ccc(N4CC[C@@H](N(C)C(C)(C)C)C4)nn3)cc2o1 [Compound 859] | – | – | – | – | – | – | – | – | AC50 [1, 12]: 1000 to 10000 nM; IC50 [1, 13]: 1000 to 10000 nM; IC50 [1, 14]: 1000 to 10000 nM; IC50 [2, 15]: 1000 to 10000 nM; IC50 [3, 16]: < 100 nM; AC50 [4, 12]: 1000 to 10000 nM; IC50 [4, 17]: 1000 to 10000 nM; IC50 [4, 18]: 1000 to 10000 nM |
| COc1cc(-c2ccc(-c3ccc(N4CC[C@@H](NC5CC5)C4)nn3)c(O)c2)cnn1 [Compound 216, 2-{6-[(3R)-3-(cyclopropylamino)pyrrolidin-1-yl]pyridazin-3-yl}-5-(6-methoxypyridazin-4-yl)phenol] | 100 to 1000 | < 100 | < 100 | 100 to 1000 | < 100 | 100 to 1000 | 100 to 1000 | 100 to 1000 | – |
| Cc1ncc(-c2cc(O)c(-c3ccc(N4CC[C@H](N(C)C5CCC5)C4)nn3)cc2F)s1 [Compound 267] | < 100 | < 100 | < 100 | < 100 | < 100 | < 100 | < 100 | < 100 | – |

Source: patent US20250333397A1 (REMIX THERAPEUTICS INC., priority 2021, published 2025)
